# Test results as given in patent US11717477B2, “Vaginal systemic drug delivery” (LiGalli B.V., priority 2018, dated 2023).
# Several values for one entry are separate records, joined by “and”; a condition that tells them apart may be missing. Equal entries are not always repeated. Structures can show the parent of a compound that is named as a salt. Where two headings read alike, the source gives them in different places.
# Experiments:
# in vivo = details: female, Beagle, dog
# [1] = cited from earlier work
# [2] = cited from earlier work; remark: listed apart in the source
# [3] = physiological release of oxytocin; cited from earlier work
# [4] = 5 min after first vaginal dose, individual dogs
# [5] = 10 min after first vaginal dose, individual dogs
# [6] = 20 min after first vaginal dose, individual dogs
# [7] = 30 min after first vaginal dose, individual dogs
# [8] = 60 min after first vaginal dose, individual dogs
# [9] = 135 min after first dose (second vaginal dose at 125 min), individual dogs
# [10] = 155 min after first dose (second vaginal dose at 125 min), individual dogs
# [11] = 185 min after first dose (second vaginal dose at 125 min), individual dogs
# [12] = Dog, Lorazepam 0.8 mg (1st), vaginal, present study
# [13] = vaginal administration, Beagle dogs, two animals per compound
# [14] = 0.8 mg, Lorazepam 0.8 mg (1st), vaginal, present study
# [15] = 0.8 mg, Lorazepam 0.8 mg (2nd), vaginal, present study
# [16] = Human, Lorazepam 2.0 mg, intramuscular, Wermeling
# [17] = Human, Lorazepam 2.0 mg, intravenous, Wermeling
# [18] = Human, Lorazepam 2.0 mg, nasal, Wermeling
# [19] = Human, Lorazepam 2.0 mg, oral, Blin
# [20] = Human, Nicotine 2.0 mg, intrapulmonary, Russell
# [21] = Human, Nicotine 4.0 mg, oral (gum), Russell
# [22] = Dog, 2.5 mg/24 h, vaginal (ring), WO2011163358
# [23] = Dog, 6.0 mg/24 h, vaginal (ring), WO2011163358
# [24] = Dog, 10 mg/24 h, oral, WO2011163358
# [25] = Human, dose 5.0, dermal (patch), Kennelly
# [26] = Human, dose 5.0, oral (ext. rel.), Kennelly
# [27] = Human, dose 5.0, oral, Kennelly
# [28] = Human, dose 100, dermal (gel), Kennelly
smiles,measurement,setting,value
"CC(C)C[C@H](NC(=O)CNC(=O)[C@H](Cc1ccc(O)cc1)NC(=O)[C@H](CO)NC(=O)[C@H](Cc1c[nH]c2ccccc12)NC(=O)[C@H](Cc1cnc[nH]1)NC(=O)[C@@H]1CCC(=O)N1)C(=O)N[C@@H](CCCNC(=N)N)C(=O)N1CCC[C@H]1C(=O)NCC(N)=O [GnRH, Gonadotropin-releasing hormone]",Plasma concentration,"dog, in vivo",<LLOQ
same,Time until plasma levels fall below LLOQ / return to baseline,"dog, in vivo",≤ 60 min
same,Tmax,"female, Beagle, dog, in vivo, 0.5 mg",5 min
same,Tmax,in vivo; 0.5 mg,10 min
same,level at 20 min,"in vivo; 50 uL, Plasma concentration",0.41 ng/mL
same,level at 0.5 h,"in vivo; 50 uL, Plasma concentration",0.2 ng/mL
same,level at 2.25 h,"in vivo; 50 uL, Plasma concentration",0.71 ng/mL
same,level at 245 min,"in vivo; 50 uL, Plasma concentration",0.19 ng/mL
same,Tmax,in vivo,≤ 5 min
same,Cmax,"[1]; human, in vivo, inhaled or intranasal, 0.8 mg",0.35 ng/mL
same,Cmax,"[1]; human, in vivo",0.002 ng/mL
O=C1Nc2ccc(Cl)cc2C(c2ccccc2Cl)=NC1O (stereo not drawn) [Lorazepam],Plasma concentration,[4],1.55 ng/mL and 3.93 ng/mL
same,Plasma concentration,[5],2.65 ng/mL and 3.47 ng/mL
same,Plasma concentration,[6],2.23 ng/mL and 4.25 ng/mL
same,Plasma concentration,[7],1.49 ng/mL and 3.28 ng/mL
same,Plasma concentration,[8],0.38 ng/mL and 0.99 ng/mL
same,Plasma concentration,[9],7.65 ng/mL and 7.13 ng/mL
same,Plasma concentration,[10],4.96 ng/mL and 6.16 ng/mL
same,Plasma concentration,[11],1.89 ng/mL and 3.32 ng/mL
same,Cmax,[12],2.8 ng/mL
same,Tmax,[12],10 min
same,Cmax,"Dog, Lorazepam 0.8 mg (2nd), vaginal, present study",7.0 ng/mL
same,Plasma concentration,"Pre-dose, individual dogs",<LLOQ
same,Time until plasma levels fall below LLOQ / return to baseline,"after vaginal administration, Beagle dogs",≤ 120 min
same,Tmax,[13],20 min
same,Cmax,in vivo; [14],4 ng/mL
same,Cmax,in vivo; [15],7.8 ng/mL
same,Tmax,in vivo; [14],5 min
same,Tmax,in vivo; [15],10 min
same,Tmax,in vivo; [13],10 min
same,Cmax,[1]; [16],22.6 ng/mL
same,Tmax,[1]; [16],180 min
same,Cmax,[1]; [17],47.6 ng/mL
same,Tmax,[1]; [17],6 min
same,Cmax,[1]; [18],33.4 ng/mL
same,Tmax,[1]; [18],55 min
same,Cmax,[1]; [19],33.4 ng/mL
same,Tmax,[1]; [19],55 min
CN1CCCC1c1cccnc1 (stereo not drawn) [Nicotine],Cmax / plasma concentration of one animal relative to the other animal,"dog, in vivo",more than 4 times
same,Time until plasma levels fall below LLOQ / return to baseline,"female, Beagle, dog, in vivo",≤ 120 min
same,Tmax,"female, Beagle, dog, in vivo",10 min
same,Tmax,"female, Beagle, dog, in vivo, 2.5 mg",5 min
same,Tmax,in vivo; 2.5 mg,10 min
same,Tmax,in vivo,≤ 5 min
same,Tmax,"[2]; dog, in vivo, po, 64 mg",120 min
same,Tmax,"[2]; dog, in vivo, po, 148 mg",60 min
same,Cmax,[1]; [20],49 ng/mL
same,Tmax,[1]; [20],2 min
same,Cmax,[1]; [21],40 ng/mL
same,Tmax,[1]; [21],30 min
O=[N+]([O-])OCC(CO[N+](=O)[O-])O[N+](=O)[O-] [Nitroglycerin],Plasma concentration,[4],<LLOQ
same,Plasma concentration,[5],<LLOQ
same,Plasma concentration,[6],<LLOQ
same,Plasma concentration,[7],<LLOQ
same,Plasma concentration,[8],<LLOQ
same,Plasma concentration,"120 min after first vaginal dose, individual dogs",<LLOQ
same,Plasma concentration,[9],<LLOQ
same,Plasma concentration,[10],<LLOQ
same,Plasma concentration,[11],<LLOQ
same,Plasma concentration,"245 min after first dose (second vaginal dose at 125 min), individual dogs",<LLOQ
same,Plasma concentration,"Pre-dose, individual dogs",<LLOQ
same,Parent compound concentration detectable in plasma,"after vaginal administration of Nitroglycerin, Beagle dogs, listed as nitroglycerin",no detectable concentrations
CCN(CC)CC#CCOC(=O)C(O)(c1ccccc1)C1CCCCC1 (stereo not drawn) [Oxybutynin HCl],Cmax / plasma concentration of one animal relative to the other animal,"dog, in vivo",more than 3 times
same,Elimination from the body,"dog, in vivo",almost completely eliminated
same,Plasma concentration,"dog, in vivo",<LLOQ
same,Tmax,in vivo,10 min
same,Cmax,[2]; [22],14.0 ng/mL
same,Tmax,[2]; [22],90 min
same,Cmax,[2]; [23],18.8 ng/mL
same,Tmax,[2]; [23],90 min
same,Cmax,[2]; [24],17.9 ng/mL
same,Tmax,[2]; [24],180 min
same,Cmax,[1]; [25],4.2 ng/mL
same,Tmax,[1]; [25],1500 min
same,Cmax,[1]; [26],2.1 ng/mL
same,Tmax,[1]; [26],60 min
same,Cmax,[1]; [27],10.0 ng/mL
same,Tmax,[1]; [27],50 min
same,Cmax,[1]; [28],3.2 ng/mL
same,Tmax,[1]; [28],1500 min
CC[C@H](C)[C@@H]1NC(=O)[C@H](Cc2ccc(O)cc2)NC(=O)[C@@H](N)CSSC[C@@H](C(=O)N2CCC[C@H]2C(=O)N[C@@H](CC(C)C)C(=O)NCC(N)=O)NC(=O)[C@H](CC(N)=O)NC(=O)[C@H](CCC(N)=O)NC1=O [oxytocin],half life time,[3],less than 6 minutes
